Consider 1 compound from publication PMC6900016, “Synthesis of Indomorphan Pseudo‐Natural Product Inhibitors of Glucose Transporters GLUT‐1 and ‐3” (Angewandte Chemie (International Ed. in English), 2019).

Common to all, as to test: cells
Parameters in all cases: Cell growth inhibition, sulforhodamine B total protein staining

The subject of one assay is HEPG2. The settings on record: Homo sapiens, HepG2; 72 h growth; read-out: Cell growth inhibition IC50/µM. Here is the method: (§1) Cell panel profiling A panel of 94 cell lines was exposed to Glupin for 72 h to assess the influence on cell growth (Oncolead, Germany). Cell growth was determined using sulforhodamine B assay. Measurements were performed using a total protein staining protocol. Briefly, after treatement cells were fixed addition of 10% TCA (for adherent growing cells) or 50% TCA (for semi-adherent growing cells or cells growing in suspension). After an incubation at 4°C for 1 h, plates were washed twice with 400 μl of deionized water and dried. Cells were then stained with 100 μl of 0.04% wt/v sulforhodamine B. Plates were incubated at room temperature for at least 30 min and washed six times with 1% acetic acid to remove unbound stain. […] This effect was much stronger at a physiological glucose concentration (5 mM; Figure 5 b,c). […] IC50 values lower than 300 nM were obtained for more than 20 cell lines, whereas 24 cell lines were not affected by the compound, among them the peripheral blood mononuclear control cells (PBMCs). Sensitivity to Glupin was detected across various tissue types (Table S6).

Another assay concerns HS578T. The settings on record: Homo sapiens, Hs-578T; 72 h growth; read-out: Cell growth inhibition IC50/µM. The protocol:
as §1

In the next assay the test system is SKOV3. The settings on record: Homo sapiens, SK-OV-3; 72 h growth; read-out: Cell growth inhibition IC50/µM. The protocol: as §1
The test system of a further assay is MT3. The settings on record: MT-3; 72 h growth; read-out: Cell growth inhibition IC50/µM. Here is the method:
as §1

For another assay, the system named is MG63. The settings on record: Homo sapiens, MG-63; 72 h growth; read-out: Cell growth inhibition IC50/µM. Here is the method:
as §1

A further assay relates to SAOS2. The settings on record: Homo sapiens, SAOS-2; 72 h growth; read-out: Cell growth inhibition IC50/µM. Here is the method: as §1
The test system of a further assay is HT29. The settings on record: Homo sapiens, HT-29; 72 h growth; read-out: Cell growth inhibition IC50/µM. The protocol:
as §1

A further assay deals with PANC1. The settings on record: Homo sapiens, PANC-1; 72 h growth; read-out: Cell growth inhibition IC50/µM. The protocol:
as §1

The subject of another assay is UMUC3. Conditions: Homo sapiens, UMUC3; 72 h growth; read-out: Cell growth inhibition IC50/µM. The protocol: as §1
The subject of the next assay is HELA. Conditions: Homo sapiens, HeLa; 72 h growth; read-out: Cell growth inhibition IC50/µM. Here is the method: as §1
Another assay concerns HS729. Conditions: 72 h growth; read-out: Cell growth inhibition IC50/µM. Here is the method: as §1
The next assay deals with HCT116. The settings on record: Homo sapiens, HCT-116; 72 h growth; read-out: Cell growth inhibition IC50/µM. Here is the method:
as §1

The test system of a further assay is SKMEL28. Conditions: Homo sapiens, SK-MEL-28; 72 h growth; read-out: Cell growth inhibition IC50/µM. The protocol: as §1
For another assay, the system named is PANC1005. The settings on record: Homo sapiens, Panc1005; 72 h growth; read-out: Cell growth inhibition IC50/µM. The protocol:
as §1

In the next assay the test system is NCIH82. Conditions: Homo sapiens, NCI-H82; 72 h growth; read-out: Cell growth inhibition IC50/µM. The protocol: as §1
The next assay has as its system SF295. Conditions: Homo sapiens, SF-295; 72 h growth; read-out: Cell growth inhibition IC50/µM. Here is the method:
as §1

A further assay has as its system U87MG. The settings on record: Homo sapiens, U-87 MG; 72 h growth; read-out: Cell growth inhibition IC50/µM. Here is the method:
as §1

The subject of another assay is 22RV1. Conditions: Homo sapiens, 22Rv1; 72 h growth; read-out: Cell growth inhibition IC50/µM. Here is the method:
as §1

A further assay relates to WSUNHL. The settings on record: Homo sapiens, WSU-NHL; 72 h growth; read-out: Cell growth inhibition IC50/µM. The protocol:
as §1

A further assay has as its system ACHN. Conditions: Homo sapiens, ACHN; 72 h growth; read-out: Cell growth inhibition IC50/µM. Here is the method: as §1
In the next assay the test system is CAKI1. The settings on record: Homo sapiens, CAKI-1; 72 h growth; read-out: Cell growth inhibition IC50/µM. Here is the method: as §1
Another assay concerns HL60. Conditions: Homo sapiens, HL-60; 72 h growth; read-out: Cell growth inhibition IC50/µM. Here is the method: as §1
For the next assay, the system named is SKNAS. The settings on record: Homo sapiens, SK-N-AS; 72 h growth; read-out: Cell growth inhibition IC50/µM. The protocol:
as §1

Take `CCOC(=O)Cn1c2c(c3ccccc31)C[C@@H]1C[C@H]2C(OC)CN1C(=O)c1cccnc1SC` (single isomer, unassigned; (+)) [(+)-5a, Glupin]: the IC50 with HEPG2 was over 30 µM; with HS578T, 0.12 µM; with SKOV3 it was 6.07 µM; in the assay on MT3, 2.54 µM; with MG63 it was over 30 µM; in the assay with SAOS2, over 30 µM. The IC50 in the assay with HT29 was 3.35 µM; in the assay on PANC1, 0.706 µM; with UMUC3, 0.032 µM; with HELA, 1.25 µM; with HS729, over 30 µM; in the assay on HCT116, 1.47 µM. Further, the IC50 with SKMEL28 is over 30 µM; with PANC1005, 0.269 µM; with NCIH82, 1.17 µM; with SF295 it was 0.427 µM; in the assay on U87MG, over 30 µM; with 22RV1, 5.57 µM. Further, the IC50 with WSUNHL was 0.062 µM; in the assay on ACHN, over 30 µM; in the assay with CAKI1, 0.805 µM; in the assay with HL60 it was 0.112 µM; in the assay with SKNAS, 0.175 µM.
